The values below are quoted from earlier work in US20100239661A1, “PHARMACEUTICAL COMPOSITIONS OF URSODIOL” (priority 2006, published 2010).

Molecules are shown by their SMILES. Read-outs that look alike come from different tables or passages of the source.

The conditions of data set [1]: for oral absorption: following oral administration.
For data set [2] the following is noted: unconjugated ursodiol, healthy subjects.
Assay in data set [3]: not given
This is another data set of the same source.

Regarding `C[C@H](CCC(=O)O)[C@H]1CC[C@H]2[C@@H]3[C@@H](O)C[C@@H]4C[C@H](O)CC[C@]4(C)[C@H]3CC[C@]12C` [Ursodiol, 3α,7β-dihydroxy-5β-cholan-24-oic acid], the solubility result runs as follows: (in chloroform) “slightly soluble”; (in ethanol) “freely soluble”; (in ether) “sparingly soluble”; (in glacial acetic acid) “freely soluble”; (in water) “practically insoluble”. The “share of biliary and plasma bile acids” value in data set [1] (chronic dose of 13 to 15 mg/kg/day) was 30-50%. The oral absorption result in data set [1] is “rapid and complete”; in data set [1] (listed as ursodiol) it was “incomplete”. In addition, the hepatic extraction result in data set [1] (once absorbed, in the absence of liver disease) is reported as “about 50%”. Also, in data set [1] (with treatment, except in severe cholestatic liver disease), the urinary excretion result is given as “less than 1%”. Further, in data set [2], the “bound to plasma protein” value is “at least 70%”. Moreover, the “solubility (characterisation)” value in data set [3] was “low solubility”.
